The results in this text go back to patent US4175123A, “Amino-sugar derivatives, process for their preparation and pharmaceutical composition thereof” (Bayer Aktiengesellschaft, priority 1976, dated 1979).

SMILES strings stand for the structures.

The target in the assay is T1, intestinal disaccharidase complex (saccharase) (Sus scrofa, UniProt P56729).
T1 construct: both subunits cut from one SI precursor
As to the kind of experiment: In vitro saccharase inhibition test. The assay is classed as biochemical, pig. To be noted: for specific inhibitory activity (saccharase inhibitor units per gram): pH 6.25, 37° C., 20 minutes, sucrose substrate. The text has this:
In vitro saccharase inhibition test
The in vitro saccharase inhibition test makes it possible to determined the enzyme inhibitory activity of a sample by comparing the activity of the solubilised intestinal disaccharidase complex in the presence of the inhibitor with its activity in the absence (so-called 100% value) of the inhibitor. A virtually glucose-free (<100 ppm) saccharose is used here as the substrate, which determines the specificity of the inhibition test; the enzyme activity determination is based on the colorometric determination of liberated glucose by means of glucoseoxydase, peroxydase and 2,2-azino-di-[3-ethyl-benzthiazoline-6-sulphonate] (=ABTS) as the chromogen.
A saccharase inhibitor unit (SIU) is defined as that inhibitory activity which reduces a given saccharolytic activity in a defined test batch by one unit (saccharase unit=SU); the saccharase unit is defined here as that enzyme activity which, under given conditions, in one minute splits 1 μmol of sucrose and thus leads to the liberation of 1 μmol each of glucose, which is determine in the test, and fructose, which is not detected in the test.
The intestinal disaccharidase complex is obtained from pig's small intestine mucosa by trypsin digestion, precipitation from 66% ethanol at -20° C., taking up of the precipitate in 100 mM phosphate buffer of pH 7.0 and concluding dialysis against the same buffer.
100 μl of a dilution of the intestinal disaccharidase complex in 0.1 M maleate buffer of pH 6.25 are added to 10 μl of a sample solution which is diluted so that the extinction of the test batch is at least 10%, but not more than 25%, below that of the 100% value, and the mixture is pre-incubated for 10 minutes at 37° C. The dilution of the disaccharidase complex is to be adjusted to an activity of 0.05 SU/ml. […] In order to develop the colour, the mixture is incubated for 30 minutes at 37° C., after which it is diluted with 2 ml of tris buffer and measured photometrically at 420 nm against a reagent blank (with enzyme but without sucrose). […]

T1 sequence (P56729 with tags, fused parts or gaps): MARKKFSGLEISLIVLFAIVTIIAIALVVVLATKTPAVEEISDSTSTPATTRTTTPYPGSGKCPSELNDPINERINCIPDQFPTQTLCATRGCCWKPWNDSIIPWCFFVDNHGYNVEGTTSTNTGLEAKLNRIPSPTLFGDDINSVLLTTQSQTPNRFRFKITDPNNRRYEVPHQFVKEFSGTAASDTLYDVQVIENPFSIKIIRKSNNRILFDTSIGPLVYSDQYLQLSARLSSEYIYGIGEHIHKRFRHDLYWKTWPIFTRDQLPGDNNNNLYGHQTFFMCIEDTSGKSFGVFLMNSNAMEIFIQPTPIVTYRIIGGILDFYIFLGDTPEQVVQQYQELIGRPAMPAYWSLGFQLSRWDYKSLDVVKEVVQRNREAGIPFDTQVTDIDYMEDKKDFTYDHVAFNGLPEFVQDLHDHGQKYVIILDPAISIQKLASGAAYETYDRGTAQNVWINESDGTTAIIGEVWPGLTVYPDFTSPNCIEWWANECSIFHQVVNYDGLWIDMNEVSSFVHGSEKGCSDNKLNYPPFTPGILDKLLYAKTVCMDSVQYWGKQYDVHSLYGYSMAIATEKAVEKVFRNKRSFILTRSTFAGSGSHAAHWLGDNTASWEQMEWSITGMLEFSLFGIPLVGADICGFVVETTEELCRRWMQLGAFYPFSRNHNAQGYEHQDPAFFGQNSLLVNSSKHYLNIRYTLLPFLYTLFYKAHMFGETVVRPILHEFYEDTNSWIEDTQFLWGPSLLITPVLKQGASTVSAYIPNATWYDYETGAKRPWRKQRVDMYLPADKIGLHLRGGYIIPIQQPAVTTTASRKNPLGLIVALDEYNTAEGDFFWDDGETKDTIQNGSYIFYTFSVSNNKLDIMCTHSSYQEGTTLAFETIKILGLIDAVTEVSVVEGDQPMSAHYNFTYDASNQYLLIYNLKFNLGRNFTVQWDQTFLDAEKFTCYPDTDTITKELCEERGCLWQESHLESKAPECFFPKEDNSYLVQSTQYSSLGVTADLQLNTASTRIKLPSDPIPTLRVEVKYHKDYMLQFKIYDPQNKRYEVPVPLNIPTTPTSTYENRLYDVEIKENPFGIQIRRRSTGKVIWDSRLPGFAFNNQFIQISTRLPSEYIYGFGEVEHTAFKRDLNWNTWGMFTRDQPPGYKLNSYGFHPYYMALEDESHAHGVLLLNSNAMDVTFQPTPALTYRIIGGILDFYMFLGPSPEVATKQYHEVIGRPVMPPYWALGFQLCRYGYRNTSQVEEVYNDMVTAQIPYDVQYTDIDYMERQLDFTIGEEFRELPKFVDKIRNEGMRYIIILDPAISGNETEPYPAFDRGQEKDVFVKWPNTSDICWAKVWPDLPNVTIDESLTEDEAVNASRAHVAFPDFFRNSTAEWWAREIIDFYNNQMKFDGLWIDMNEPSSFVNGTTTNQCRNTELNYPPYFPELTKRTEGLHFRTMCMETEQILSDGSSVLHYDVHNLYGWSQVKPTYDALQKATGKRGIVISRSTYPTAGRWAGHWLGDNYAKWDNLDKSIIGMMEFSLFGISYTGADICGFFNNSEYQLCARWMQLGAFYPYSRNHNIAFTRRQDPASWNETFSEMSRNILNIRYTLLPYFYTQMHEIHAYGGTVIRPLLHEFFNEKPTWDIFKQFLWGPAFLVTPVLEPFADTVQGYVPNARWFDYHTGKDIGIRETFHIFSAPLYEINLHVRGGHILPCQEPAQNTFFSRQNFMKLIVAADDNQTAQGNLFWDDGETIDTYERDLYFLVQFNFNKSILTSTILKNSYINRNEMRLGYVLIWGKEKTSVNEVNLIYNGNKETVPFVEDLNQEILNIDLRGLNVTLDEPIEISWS

Take `C[C@H]1O[C@H](O[C@H]2[C@H](O)[C@@H](O)[C@@H](O[C@H]3[C@H](O)[C@@H](O)C(O)O[C@@H]3CO)O[C@@H]2CO)[C@H](O)[C@@H](O)[C@@H]1N[C@H]1C=C(CO)[C@@H](O)[C@H](O)[C@H]1O` (stereo partly drawn) [compound with P+q=2]: the “specific inhibitory activity (saccharase inhibitor units per gram)” value is reported as 65,000 SIU/g.

As to `C[C@H]1O[C@H](O[C@H]2[C@H](O)[C@@H](O)[C@@H](O[C@H]3[C@H](O)[C@@H](O)[C@@H](O[C@H]4[C@H](O)[C@@H](O)C(O)O[C@@H]4CO)O[C@@H]3CO)O[C@@H]2CO)[C@H](O)[C@@H](O)[C@@H]1N[C@H]1C=C(CO)[C@@H](O)[C@H](O)[C@H]1O` (stereo partly drawn) [isomers with p=0 and q=3], the “in vitro sucrose inhibitory activity” value (isolated isomer) is listed as 19,000 SIU/g.

On to `C[C@H]1O[C@H](O[C@H]2[C@H](O)[C@@H](O)[C@@H](O[C@H]3[C@H](O)[C@@H](O)C(O)O[C@@H]3CO)O[C@@H]2CO)[C@H](O)[C@@H](O)[C@@H]1N[C@H]1C=C(CO)[C@@H](O)[C@H](O)[C@H]1O` (stereo partly drawn) [compound of the formula I (page 2) with m=0 and n=2], for which the “specific inhibitory activity (saccharase inhibitor units per gram)” value is 68,000 SIU/g.
